According to US4965264A, “Thienocinnoline compounds and their pharmaceutical use” (Yoshitomi Pharmaceutical Industries, Ltd., priority 1987, dated 1990):

Experiments:
E. coli 0-111 strain = experiment: Infection-protective action (E. coli infection in cyclophosphamide-treated mice); format: in vivo, mouse (male ICR); details: 3 mg/kg orally for 3 days; 7 days after E. coli inoculation; cyclophosphamide 200 mg/kg i.p.
Description: Cyclophosphamide was intraperitoneally administered to male ICR mice (weighing 23-27 g, aged 5 weeks) at the dosage of 200 mg/kg. Four days later, […] of E. coli 0-111 strain was subcutaneously inoculated into the mice (Controls). The test compounds (3 mg/kg) were orally administered to the mice for 3 days from the following day of the administration of cyclophosphamide. The survival rate of the treated mice relative to controls 7 days after the inoculation of E. coli was compared.

peritoneal macrophages = experiment: Action on macrophage-phagocytosis; format: cell-based; details: Rattus norvegicus, read-out: potentiating action on macrophage phagocytosis, relative ratio of phagocytic macrophages
Description: (§1) ICR mice weighing 30-35 g were intraperitoneally administered with glycogen. Three hours later, the leukocytes in the abdominal cavity were collected. A leukocyte suspension of 5×10^6 cells/ml was prepared and the test compound was added to 200 μl of the cell suspension, followed by further addition of 100 μl of mouse serum and 100 μl of dead yeast (1×10^8 particles/ml) thereto. The mixture was incubated at 37° C. for 20 minutes. By observing more than 200 leukocytes in the reaction mixture under a microscope (400 magnifications), the number of the leukocytes which had phagocytosed at least one dead yeast was counted. The ratio of the number of phagocytic leukocytes treated with 0.1 μM of the test compounds relative to that of phagocytic leukocytes of controls was estimated. The potentiating actions on phagocytosis of the compounds of Examples 1 and 9 were 160% and 158% respectively.
Casein sodium was intraperitoneally administered to rats. Three to four days later, peritoneal macrophages were collected. The phagocytosis was examined, and the relative ratio of phagocytic macrophages of the rat treated with 0.1 μM of the test compound was calculated in the same manner as Experimental Example 4. The potentiating actions on phagocytosis of the compounds of Examples 2, 8 and 10 were 146%, 167% and 148% respectively.

benzodiazepine receptors = experiment: Displacement of tritiated diazepam, benzodiazepine receptor binding (synaptosome fraction of cerebral cortex); design: species or system rat (male Wistar); details: displacement of 2 nM tritiated diazepam, rat cortex synaptosomes, pH 7.4, 0°C, 20 min; read-out: Affinity to BZP Receptors, Ki
Description: The experiment for specific affinity to benzodiazepine receptors was carried out in accordance with the method described in Life Science, vol. 20, 2101 (1977).
The crude cyhaptosome fraction was isolated from the cerebral cortex of male Wistar rats aged 9-10 weeks, and was suspended in 50 mM Tris-hydrochloric acid buffer solution (pH 7.4) containing 120 mM sodium chloride and 5 mM potassium chloride. These suspensions were used for the experiment.
The test compounds in several different concentrations and tritiated diazepam (in final concentration of 2 nM) were added to the synaptosome suspensions, and the mixtures were incubated at 0° C. for 20 minutes. These suspensions were filtered with Whatman GF/B glassfiber filters. After the filters were washed with the above-mentioned buffer solution, the radioactivity left on the filters was measured with the use of a liquid scintillation counter.
Specific binding was determined by subtracting binding in the presence of 10^-6 M unlabeled diazepam from total binding.
According to the foregoing experimental method, the binding force to benzodiazepine receptors of the compound of the present invention is evaluated from its displacement ability for tritiated diazepam at its binding site, which is represented by Ki value (nM).

[1] = system: amnesia induced by electroconvulsive shock; experiment: Action on experimental amnesia (electroconvulsive shock, step-through passive avoidance); format: in vivo, mouse (male ddY); details: Mus musculus, ip; i.p. immediately after ECS; latency 3 h after acquisition trial; read-out: Anti-amnesia Action, MED
Description: The experiment was carried out in accordance with the method described by Sara in Psychopharmacologia, vol. 36, 59 (1974). Male ddY mice weighing 23-26 g, 20 animals per group, were used, and a step-through passive avoidance reflex practicing box consisting of illuminated chamber and dark chamber was used as the experimental apparatus. As the acquisition trial of passive avoidance reflex, the animals were placed in the illuminated chamber and then allowed to enter the dark one. As soon as the animals entered the dark chamber, footshock was applied to the mouse. Experimental amnesia was caused by applying electroconvulsive shock [ECS]soon after the acquisition trial. As the experimental trial, the animals were placed in the illuminated chamber three hours after the acquisition trial, and the time which the animals took to enter the dark chamber (latency) was measured until 600 seconds. The test compounds were administered intraperitoneally (i.p.) immediately after the application of ECS. For the evaluation of the effects, antagonistic actions against the reduction in latency, caused by the application of ESC were examined.

leukocytes = experiment: Action on leukocyte-phagocytosis; format: cell-based, mouse (ICR); details: Mus musculus, 20 min, 37° C., read-out: potentiating action on leukocyte phagocytosis, ratio of phagocytic leukocytes relative to controls
Description: The experiment was performed in accordance with the method by Stossel et al. [Journal of Clinical Investigation, vol. 51, 615 (1972)].
as §1

Row | Ki (benzodiazepine receptors) [nM] | SMILES | effect on survival rate relative to controls (E. coli 0-111 strain) | activity at 0.1 µM (peritoneal macrophages) [%] | minimal effective dose [1] [mg/kg] | activity at 0.1 µM (leukocytes) [%]
1 | 7 | Cc1ccc(N2N=C3c4cc(Br)sc4CCC3CC2=O)cc1 (stereo not drawn) [Example 10, 2-bromo-8-(4-methylphenyl)-4,5,5a,6,7,8-hexahydrothieno[2,3-h]cinnolin-7-one] |  | 148 |  | 
2 | 10 | Cc1ccc(N2N=C3c4cc(C)sc4CCC3CC2=O)cc1 (stereo not drawn) [Example 24, 2-Methyl-8-(4-methylphenyl)-4,5,5a,6,7,8-hexahydrothieno[2,3-h]cinnolin-7-one] |  |  |  | 
3 | 5.1 | COc1ccc(N2N=C3c4cc(C)sc4CCC3CC2=O)cc1 (stereo not drawn) [Example 14, 2-Methyl-8-(4-methoxyphenyl)-4,5,5a,6,7,8-hexahydrothieno[2,3-h]cinnolin-7-one] |  |  | 0.25 | 
4 | 30 | O=C1CC2CCc3sc(Br)cc3C2=NN1c1ccccc1 (stereo not drawn) [Example 4, 2-bromo-8-phenyl-4,5,5a,6,7,8-hexahydrothieno[2,3-h]-cinnolin-7-one] |  |  | 0.5 | 
5 | 12 | O=C1CC2CCc3sc(Br)cc3C2=NN1c1ccc(Cl)cc1 (stereo not drawn) [Example 6, 2-bromo-8-(4-chlorophenyl)-4,5,5a,6,7,8-hexahydrothieno[2,3-h]cinnolin-7-one] |  |  |  | 

The remaining lines, values behind:

Row | SMILES | Ki (benzodiazepine receptors) [nM] | effect on survival rate relative to controls (E. coli 0-111 strain) | activity at 0.1 µM (peritoneal macrophages) [%] | minimal effective dose [1] [mg/kg] | activity at 0.1 µM (leukocytes) [%]
6 | Cc1ccc(N2N=C3c4ccsc4CCC3CC2=O)cc1 (stereo not drawn) [Example 8, 8-(4-methylphenyl)-4,5,5a,6,7,8-hexahydrothieno[2,3-h]cinnolin-7-one] |  | significant increasing effects on survival rate | 167 |  | 
7 | O=C1CC2CCc3sccc3C2=NN1c1ccccn1 (stereo not drawn) [Example 3, 8-(2-pyridyl)4,5,5a,6,7,8-hexahydrothieno[2,3-h]cinnolin-7-one] | 280 |  |  | 0.1 | 
8 | O=C1CC2CCc3sccc3C2=NN1c1ccccc1 (stereo not drawn) [Example 1, 8-phenyl-4,5,5a,6,7,8-hexahydrothieno[2,3h]cinnolin-7-one] |  |  |  |  | 160
9 | O=C1CC2CCc3sccc3C2=NN1c1ccc(Cl)cc1 (stereo not drawn) [Example 2, 8-(4-chlorophenyl)4,5,5a,6,7,8-hexahydrothieno[2,3-h]cinnolin-7-one] |  | significant increasing effects on survival rate | 146 |  | 
10 | COc1ccc(N2N=C3c4ccsc4CCC3CC2=O)cc1 (stereo not drawn) [Example 9, 8-(4-methoxyphenyl)4,5,5a,6,7,8-hexahydrothieno[2,3-h]cinnolin-7-one] | 12 |  |  | 0.5 | 158
11 | O=C1CC2CCc3sc(Br)cc3C2=NN1c1ccccn1 (stereo not drawn) [Example 7, 2-bromo-8-(2-pyridyl)-4,5,5a,6,7,8-hexahydrothieno[2,3-h]cinnolin-7-one] | 60 |  |  | < 0.5 | 
12 | Cc1cc2c(s1)CCC1CC(=O)N(c3ccccc3)N=C21 (stereo not drawn) [Example 5, 2-methyl-8-phenyl-4,5,5a,6,7,8-hexahydrothieno[2,3-h]cinnolin-7-one] | 18 |  |  | 0.25 | 
13 | COc1ccc(N2N=C3c4cc(Br)sc4CCC3CC2=O)cc1 (stereo not drawn) [Example 11, 2-bromo-8-(4-methoxyphenyl)-4,5,5a,6,7,8-hehahydrothieno[2,3-h]cinnolin-7-one] | 4.5 | significant increasing effects on survival rate |  |  | 
